Experimental findings from patent US20230103444A1 (The Regents of the University of Colorado, a Body Corporate, priority 2020, published 2023) are described below.

For series [1], the system named is E-cadherin promoter activity. Description: EcadPro-RFP reporter 3D high-content imaging in tumor organoids. It is filed as cell-based. Conditions: 72 h; for EC50: Homo sapiens, SW-620, read-out: EC50 upregulation of E-cadherin promoter activity, SW620 tumor organoids. Here is the method:
After validating hits 5-7 against CHD1L mediated TCF transcription, the ability of these compounds to reverse EMT and other malignant properties in CRC were evaluated. E-cadherin and vimentin are putative biomarkers for the epithelial and mesenchymal phenotypes, respectively. [McDonald et al., 2015] Loss of E-cadherin and gain of vimentin are also clinical biomarkers of poor prognosis. [Yun et al., 2014; Richardson et al., 2012; Dhanasekaran et al., 2001; Kashiwagi et al., 2010; Toiyama et al., 2013] Accordingly, lentiviral promoter driven reporters for E-cadherin (pCDH1-EcadPro-RFP) and vimentin (pCDH1-VimPro-GFP) were developed, which faithfully report E-cadherin and vimentin protein expression, respectively. [Zhou et al., 2016; Abraham et al., 2019] SW620 cells transduced with either EcadPro-RFP or VimPro-GFP were cultured as tumor organoids for 72 h, reaching a diameter of 600 μm. Tumor organoids were treated with compounds 5-7 for an additional 72 h to determine the effective concentration 50 percent (EC50) for modulating promoter activity. Changes in promoter expression was quantified using a 3D confocal image […] based high-content analysis algorithm (FIG. 2A-2B). [Zhou et al., 2016; Abraham et al., 2019]
CHD1L has been reported to confer anti-apoptotic activity by inhibiting activation of caspase-dependent apoptosis. [Li et al., 2013; Sun et al., 2016] Additionally, reversal or inhibition of EMT is known to restore apoptotic activity of cancer cells. [Lu et al., 2014] To determine if CHD1L inhibitors reverse EMT prior to induction of cell death, E-cadherin expression by EcadPro-RFP reporter activity was monitored and cytotoxicity was measured using the CellTox™ Green assay. Cells were treated with CHD1L inhibitors for 72 h and imaged every 2 h.
Stable VimPro-GFP or EcadPro-RFP SW620 reporter cells were generated using pCDH imPro-GFP-EF1-puro virus or pCDH-EcadPro-mCherry-EF1-puro virus as previously reported. [Zhou et al., 2016; Abraham et al., 2019] The stable fluorescently labeled reporter cells were used to generate tumor organoids as described herein. Tumor organoids were treated with CHD1L inhibitors at 10 μM for an additional 72 h. Following treatment, tumor organoids were stained with 16 μM of Hoechst 33342 for 1 h (nuclei stain). Images were taken with a 5× air objective. Z-stacks were set at 26.5 μm apart for a total of 15 optical slices. Imaging and high-content analysis were performed using an Opera Phenix™ and Harmony® software (PerkinElmer, Hopkinton, Mass.). Nuclei were identified within each layer and cells were found with either GFP or mCherry channel. The fluorescence intensities of each channel were calculated and thresholds were set based on the background intensities. Percentages of GFP or mCherry RFP positive cells were calculated and normalized to the DMSO treated group.
3D High-Content Imaging and Analysis of EMT Dual-Reporter Activity. Tumor organoids were imaged using the Opera Phenix high-content screening system (PerkinElmer) in confocal mode utilizing a 10× air objective (NA 0.3). The following excitation and emission (Ex/Em) wavelengths were employed: RFP (561/570-630) and GFP (488/500-550). Organoids were also imaged in Brightfield to segment and perform high-content analysis of dual reporter specific fluorescence intensity. RFP fluorescent signal correlates with E-Cadherin promoter activity, while GFP fluorescent signal is correlates with vimentin promoter activity. Both fluorescent signals were quantified and normalized as previously described. (Esquer, et al., 2021)

Series [2] relates to HCT-116 and DLD1CHD1L-OE cells. Description: Clonogenic colony formation after 24 h pretreatment (CSC stemness). It is filed as cell-based, human. Particulars: colonies over 10 days. Here is the method: To assess CHD1L inhibitors for their ability to suppress CSC stemness, HCT-116 or CHD1L overexpressing DLD1 cell lines were pre-treated in monolayer cultures for 24 h with vehicle control (0.5% DMSO) or CHD1L inhibitors at the concentrations indicated in FIG. 2C. Pretreated viable cells were plated at 1,000 cells/well in 6-well plates or 200 cells/well in a 24-well plates. Colonies were analyzed using the IncuCyte® S3 2018A (Sartorius, France) software (with the following parameters modified from default: (1) for HCT116 cells segmentation adjustment=0.6; Min area (μm2)=3×104; Max area (μm2)=1.6×106; Max eccentricity=0.9; (2) for DLD1CHD1L OE cells segmentation adjustment=1; Min area (μm2)=1×104; Max area was not constrained; Max eccentricity=0.95. Experiments were replicated 2× (n=2 for each experiment).

Entries after “also recorded” stand apart in the source; their conditions may differ.

For orientation: EC50 means the concentration giving half of the maximal effect. Take `COc1ccc(-c2nc(S(=O)(=O)c3ccccc3)c(S(C)(=O)=O)o2)cc1` [Compound 5]: the EC50 in series [1] was 11.9 ± 0.3 µM. Further, the “inhibition of CSC stemness (clonogenic colony formation), in words” value (“inhibition of CSC stemness” for short) in series [2] is given as “more potent dose dependent inhibition”.

Consider `Cc1cc(Nc2ccc(NC(=O)Cc3cccs3)cc2)nc(N2CCCC2)n1` [Compound 6, N-(4-((6-methyl-2-(pyrrolidin-1-yl)pyrimidin-4-yl)amino)phenyl)-2-(thiophen-2-yl)acetamide], for which the “E-cadherin expression before onset of cytotoxicity” value in series [1] (EcadPro-RFP reporter and CellTox Green, imaged every 2 h, relative to DMSO) is given as “significant increase in E-cadherin expression prior to induction of cytotoxicity”. Further, the EC50 in series [1] is 11.4 ± 0.3 µM. The “inhibition of CSC stemness” value in series [2] (listed as 6.0) is reported as “more potent dose dependent inhibition; also recorded: significantly inhibits CSC stemness”.

Turning to `Cc1cc(Nc2ccc(NC(=O)c3c[nH]c4ccccc34)cc2)nc(N2CCCC2)n1` [Compound 6.3, N-(4-((6-methyl-2-(pyrrolidin-1-yl)pyrimidin-4-yl)amino)phenyl)-1H-indole-3-carboxamide], in series [1] (SW620 or HCT116 tumor organoids), the “upregulation of E-cadherin promoter activity (EcadPro-RFP), in words” value is listed as “upregulation of E-cadherin promoter activity”. Also, in series [2], the “inhibition of CSC stemness” value is “significantly inhibits clonogenic colony formation”.
